Consider three compounds from article PMC10303363, “Synthesis and Preclinical Evaluation of Novel ^68Ga-Labeled (R)-Pyrrolidin-2-yl-boronic Acid-Based PET Tracers for Fibroblast Activation Protein-Targeted Cancer Imaging” (Pharmaceuticals, 2023).

By IC50 is commonly meant the point on the concentration scale where inhibition reaches its midpoint.

The structures appear in SMILES notation. Some results are limits rather than exact numbers.

One data set relates to PREP. As to conditions: cited from earlier work.
In data set [1] the test system is FAP. As to conditions: cited from earlier work.
Another data set relates to DPPs. As to conditions: cited from earlier work.
Data set [2] concerns FAP. The data set is described as follows: FAP inhibition reported by Jansen et al. (literature). Format: biochemical. As to conditions: from literature IC50 values.
Another data set deals with bone and muscle. The arrangement: method as in PMID 30850501, PMID 32332144, PMID 33721173, PMID 23712432, PMID 34620730. As to conditions: mice; cited from earlier work.
The test system of data set [3] is FAP-positive SK-Mel-187 melanoma xenograft. The arrangement: method as in PMID 25633335. As to conditions: in vitro; cited from earlier work.

Take `O=C(NCC(=O)N1CCC[C@H]1B(O)O)c1ccnc2ccccc12` [N-(4-quinolinoyl)-Gly-boroPro]: the “selectivity over PREP” value in the data set with PREP is ~ 3 fold. Moreover, the IC50 in the data set on FAP [1] is 3.7 ± 0.2 nM. Also, the “selectivity over DPPs” value in the data set on DPPs was > 10^3. Moreover, the “fold higher FAP binding affinity than N-(4-quinolinoyl)-Gly-(2-cyanopyrrolidine)” value with FAP [2] stood at 2.8 fold.
As to `N#C[C@@H]1CC(F)(F)CN1C(=O)CNC(=O)c1ccnc2ccc(OCCCN3CCN(C(=O)CN4CCN(CC(=O)[O-])CCN(CC(=O)[O-])CCN(CC(=O)[O-])CC4)CC3)cc12.[68Ga+3]` [[^68Ga]Ga-FAPI-04], the “uptake in the bone and muscle” value in the data set with bone and muscle was “high uptake”.
Consider `O=C(NCC(=O)N1CCC[C@H]1B(O)O)c1ccc([125I])cc1` [[^125I]MIP-1232], for which, in data set [3], the “accumulation in FAP-positive SK-Mel-187 melanoma xenograft” value is “strongly accumulate”.
